Measurements as given in patent US20050118310A1, “Formulations of compounds derived from natural sources and their use with irradiation for food preservation” (priority 2001, published 2005).
Where “and” joins values, the source holds several entries; their conditions need not be identical. Identical values can stand only once. Marks after values point to notes of the source that are not given here.

Legend:
S. typhi [1] = test: Irradiation sensitivity of S. typhi in chicken breast; assay type: cell-based, Salmonella typhi (ATCC 19430); details: for D10(kGy) / Increase in Sensitivity: chicken breast; for D10(kGy): 4° C.; for D10(kGy) / irradiation dose necessary to completely eliminate S. typhi from the chicken breast / Increase in Sensitivity: trans-cinnamaldehyde 0.030%, tetrasodium pyrophosphate 0.003%, carvacrol 0.038%, thymol […]; for factor by which the effect was reduced in the chicken breast: concentration of 1/30 of the MIC value in ground beef, compared with ground beef at MIC; for Increase in Sensitivity: vs control
[2] = test system: Six pathogenic and spoilage bacteria, commonly found in meat and meat products; test: MIC in artificial culture media (1 log reduction); assay type: cell-based
Method: The concentration ot each active compound added to the meat samples was based on results obtained in a previous experiment. These concentrations represent the minimum inhibitory concentrations (MIC) of the active compounds required to be present in artificial culture media in order to reduce by 1 log the number of bacteria in culture. Six pathogenic and spoilage bacteria, commonly found in meat and meat products, were tested. […] The concentration used for carnosine (1.0%) was selected from the literature (Sebranek, 1999). The concentrations of BHA (0.01%), BHT (0.01%), EDTA (100 ppm), and tetrasodium pyrophosphate (0.1%) corresponded to the concentrations recommended by the Canadian Food Inspection Agency (CFIA).
This value was detennined by testing six pathogenic and spoilage bacteria, commonly found in meat and meat products.

E. coli [3] = test: MIC (D10 %) of active compounds in ground beef, E. coli; assay type: cell-based, Escherichia coli (ATCC 25922); details: non-irradiated ground beef, 10^5 CFU/g, stored at 4° C. for 24 hours; % w/w or v/w
Method: (§1) Escherichia coli (ATCC 25922) and Salmonella typhi (ATCC 19430) were obtained from the American Type Culture Collection (Rockville, Md., USA) and maintained at −80° C. in Tryptic Soy Broth (TSB; Difco Laboratory, Detroit, Mich.) containing glycerol (10%; v/v). Before each experiment, stock cultures were subcultured through two consecutive 24 h growth cycles in TSB at 35° C. to obtain working cultures containing approximately 10^9 UCF/ml for E. coli and S. typhi.
(§2) Samples were homogenised for 2 min in sterile peptone water (0.1%) using a Lab-blender 400 stomacher (Laboratory Equipment, London, UK). From this mixture, serial dilutions were prepared and appropriate ones were pour-plated in tryptic soy agar (TSA) (Difco, Laboratories, Detroit, Mich., USA) and incubated at 35° C., 24 hours for the numeration of E. coli and S. typhi.
(§3) D10 deteriiination: The kinetics of bacteria destruction by irradiation with or without the active compounds and under different packaging conditions was evaluated by linear regression. Bacterial counts (log CFU/ml) were plotted against irradiation doses or compound concentrations and the D10 values were calculated using SigmaPlot program. Statistical analysis was done using SPSS program. The Duncan test was used with a probability of 0.05.
(§4) The MIC values for the active compounds were determined on the basis of their antibacterial effectiveness in meat. Concentrations retained were those to reduce by 1 log CFU the population of E. coli or S. typhi in ground beef. Ground beef samples weighing 200 g were contaminated with working cultures of E. coli or S. typhi to obtain a final concentration of 10^5 CFU/g. The ground beef samples containing micro-organisms was mixed during 3 minutes at medium speed in a 4L-conmmercial blender (Waring Products, New Hartford, Col., USA) and different concentrations of the active compounds were incorporated, followed by another 3 minutes period mixing. Sterile petri plates (60×15 mm) were filled with ground beef samples containing micro-organisms and different concentrations of active compounds in portion of 25 g each and stored at 4° C. for 24 hours.
(§5) In addition to the above compounds, minimal concentrations of different types of commercial Herbalox® and Duralox® required to reduce by 1 log the bacterial population of E. coli in ground beef were evaluated. […] However, an estimation of the minimal concentration was calculated using the slope of the curve.

S. typhi [4] = test: MIC (D10 %) of active compounds in ground beef, S. typhi; assay type: cell-based, Salmonella typhi (ATCC 19430); details: non-irradiated ground beef, 10^5 CFU/g, stored at 4° C. for 24 hours; % w/w or v/w
Method: as §1, §2, §3, §4, §5

E. coli [5] = test: Shelf life study, E. coli in ground beef irradiated at 0.30 kGy; assay type: cell-based, Escherichia coli; details: stored at 4° C., trans-cinnamaldehyde […], thymol 1.15%, carvacrol […]
Method: Irradiation treatments of ground beef samples for D10 and shelf life determination were performed using UC-15B irradiator (MDS-Nordion International Inc., Kanata, ON, Canada) equipped with a ^60 Co source at a dose rate of 14.42 kGy/h). Irradiation doses used for D10 determination were ranged from 0.25 to 0.55 kGy for E. coli, from 0.50 to 2.0 kGy for S. typhi, and from 0.5 to 2.5 kGy for the mixture of indigenous microorganisms of ground beef. The shelf life study was performed on samples irradiated at 0.30, 0.85, and 1.75 kGy for E. coli, S. typhi, and the mixture of indigenous microorganisms of ground beef, respectively. For each active compound concentration tested, a group of non-irradiated samples sened as a control. For D10 determination, samples were analysed immediately after irradiation. For shelf life studies, samples were stored at 4° C. and analysed periodically.
Microbial analysis was performed by homogenising the samples for 2 mn in sterile peptone water (0.1%) using a Lab-blender 400 stomacher (Laboratory Equipment, London, UK). From this mixture, serial dilutions were prepared and appropriate ones were pour-plated in tryptic soy agar (TSA) (Difco, Laboratories, Detroit, Mich., USA) and incubated at 35° C., 24 hours for the numeration of E. coli and S. typhi. For the ground beef broth, the incubation was performed on Plate Count Agar (PCA; Difco) at 35° C. for 48 h for the numeration mesophilic bacteria, and at 7° C. for 10 days for the numeration of psychrotrophic bacteria. Enterobacteriaceae were numerated on Violet Red Bile Glucose Agar (VRBGA; Difco) 35° C. for 48 hours.
A shelf life study was undertaken to evaluate the radiation sensitivity during refrigerated storage conditions. Ground beef samples contaminated with E. coli, S. typhi, or a mixture of indigenous micro-organisms were irradiated in presence or absence of selected active compounds. […]

E. coli [6] = test: Irradiation sensitivity of E. coli in chicken breast; assay type: cell-based, Escherichia coli (ATCC 25922); details: trans-cinnamaldehyde 0.050%, thymol 0.038%, tetrasodium pyrophosphate 0.003%, carvacrol 0.029%; for D10(kGy) / Increase in Sensitivity: chicken breast; for D10(kGy): 4° C.; for Increase in Sensitivity: vs control
E. coli [7] = test: Irradiation sensitivity (D10) of E. coli in ground beef; assay type: cell-based, Escherichia coli (ATCC 25922)
[8] = under air, trans-cinnamaldehyde […]
[9] = ground beef, air, 4° C., carvacrol 1.0% alone or with ascorbic acid 0.5% and/or tetrasodium pyrophosphate 0.1%

SMILES	D10(kGy) (S. typhi [1])	factor by which the effect was reduced in the chicken breast (S. typhi [1])	irradiation dose necessary to completely eliminate S. typhi from the chicken breast (S. typhi [1]) [kGy]	Increase in Sensitivity (S. typhi [1]) [%]	Mean values of MIC (concentration required in artificial culture media to reduce by 1 log the number of bacteria) [2]	D10 (%): minimal concentration of active compound required to reduce E. coli population by 1 log in ground beef (E. coli [3])	D10 (%): minimal concentration of active compound required to reduce S. typhi population by 1 log in ground beef (S. typhi [4])	days of storage after which complete inhibition was observed (E. coli [5]) [days]	D10(kGy) (E. coli [6])	irradiation dose necessary to completely eliminate E. coli from the chicken breast (E. coli [6])	Increase in Sensitivity (E. coli [6]) [%]	further results
Cc1ccc(C(C)C)c(O)c1 [Thymol, thymol]	0.570 ± 0.065^b kGy	5	2.8	11.4	0.1%	1.14 ± 0.05^a %	1.60 ± 0.00^ab %	15	0.131 ± 0.007^b kGy	around 0.75 kGy	9.7	
O=C/C=C/c1ccccc1 [Trans-cinnamaldehyde, trans-cinnamaldehyde]	0.341 ± 0.018^a kGy	1.5	1.4	47.0	0.25% and 0.025%	1.57 ± 0.10^b %	0.89 ± 0.03^a %	15	0.098 ± 0.006^a kGy	0.75 kGy	32.4	D10(kGy) (E. coli [7]; ground beef packed under MAP (60% O2-30% CO2-10% N2), 4° C., trans-cinnamaldehyde […]): 0.046 ± 0.001^b* kGy; D10(kGy) (E. coli [7]; ground beef packed under air, 4° C., trans-cinnamaldehyde […]): 0.115 ± 0.004^a* kGy; Increase in Sensitivity (E. coli [7]; ground beef under MAP, trans-cinnamaldehyde […] vs control under the same atmosphere): 46.5%; Increase in Sensitivity (E. coli [7]; ground beef under air, trans-cinnamaldehyde […] vs control under the same atmosphere): 8.7%; increase in irradiation sensitivity by modification of the packaging atmosphere (E. coli [7]; ground beef, MAP vs air, both with trans-cinnamaldehyde […]): 60%; irradiation dose needed to completely eliminate E. coli from the ground beef (E. coli [7]; under MAP, trans-cinnamaldehyde […]): 0.25 kGy; irradiation dose needed to completely eliminate E. coli from the ground beef (E. coli [7]; [8]): 0.6 kGy; irradiation dose to completely eliminate E. coli from ground beef (E. coli [7]; [8]): 0.2 kGy
Cc1ccc(C(C)C)cc1O [Carvacrol, carvacrol]	0.532 ± 0.071^b kGy	4	2.3	17.3	0.125%	0.88 ± 0.12^a %	1.15 ± 0.02^a %	50	0.145 ± 0.003^c kGy	0.72 kGy	0	D10(kGy) (E. coli [7]; [9]): 0.057 ± 0.0015^a kGy; irradiation dose necessary to completely eliminate E. coli (E. coli [7]; [9]): 0.3 kGy; factor by which the irradiation dose necessary to completely eliminate E. coli is lower than in the absence of active compounds (E. coli [7]; ground beef, air, 4° C., carvacrol 1.0% alone or with tetrasodium pyrophosphate 0.1%): 2.3; Increase in Sensitivity (E. coli [7]; vs control, negative = protective effect, ground beef, air, 4° C., carvacrol 1.0% alone or with ascorbic acid 0.5% and/or tetrasodium pyrophosphate 0.1%): 55.5%
